Source: ChEMBL document CHEMBL5108067, “Discovery of Potent OTUB1/USP8 Dual Inhibitors Targeting Proteostasis in Non-Small-Cell Lung Cancer” (J Med Chem, 2022)
Active and inactive are the calls of the source. The calls are words filed in the database; no cut-off is given here.

Target: T1, Ubiquitin thioesterase OTUB1 (Homo sapiens, UniProt Q96FW1)
Experiment: Inhibition of N-terminal His-6 tagged OTUB1 (40 to 271 residues) (unknown origin) expressed in Escherichia coli BL21 (DE3) cells at 10 nM using Ub-Rho measured after 0.5 to 3 hrs by fluorescence based Plate reader method relative to control
Conditions: time 0.5-3 hrs, values are per cent of control

T1 sequence (Q96FW1 whole entry, the tested form may be a part): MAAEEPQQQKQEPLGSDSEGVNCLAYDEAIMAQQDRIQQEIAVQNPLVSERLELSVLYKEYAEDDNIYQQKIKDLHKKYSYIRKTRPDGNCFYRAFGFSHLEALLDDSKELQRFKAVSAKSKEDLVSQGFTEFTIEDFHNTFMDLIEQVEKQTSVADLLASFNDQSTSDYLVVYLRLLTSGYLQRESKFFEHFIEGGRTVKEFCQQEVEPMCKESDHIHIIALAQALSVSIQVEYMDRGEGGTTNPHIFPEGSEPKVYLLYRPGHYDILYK

**Q.** With `COc1ccc(Cl)c(-c2nc3c(o2)C(=O)c2ccccc2C3=O)c1F` as the molecule, how does the residual activity read?
**A.** Its residual activity is 48.7%.

**Q.** Which residual activity does the source give for `CN1CC[C@@H](Oc2ccc(-c3nc4c(o3)C(=O)c3ccccc3C4=O)c(Cl)c2)C1` here?
**A.** Its residual activity is 70.9%.

**Q.** Which residual activity does the source give for `CN(C)CCOc1cccc(-c2nc3c(o2)C(=O)c2ccccc2C3=O)c1` here?
**A.** The residual activity was 66.7%.

**Q.** For `N#Cc1ccc(-c2nc3c(o2)C(=O)c2ccccc2C3=O)cc1`, which residual activity is on record?
**A.** Its residual activity is 46.4%.

**Q.** Which residual activity does the source give for `COc1ccc(Cl)c(-c2nc3c(o2)C(=O)c2ccccc2C3=O)c1` here?
**A.** Its residual activity is 63.2%.

**Q.** For `COc1ccc(-c2nc3c(o2)C(=O)c2ccccc2C3=O)c(C(F)(F)F)c1`, which residual activity is on record?
**A.** Its residual activity is 84.9%.

**Q.** Which residual activity does the source give for `CN1CCN(CCOc2cccc(-c3nc4c(o3)C(=O)c3ccccc3C4=O)c2)CC1` here?
**A.** Its residual activity is 66.8%.

**Q.** Which residual activity does the source give for `CN1CCN(CCOc2ccc(F)c(-c3nc4c(o3)C(=O)c3ccccc3C4=O)c2Cl)CC1` here?
**A.** Its residual activity is 17%.

**Q.** For `COc1ccc2c(c1)C(=O)c1nc(-c3cccc(OCCN(C)C)c3)[nH]c1C2=O`, which residual activity is on record?
**A.** The residual activity was 78.4%.

**Q.** For `Cc1cccc(-c2nc3c(o2)C(=O)c2ccccc2C3=O)c1`, which residual activity is on record?
**A.** Its residual activity is 63.1%.

**Q.** With `O=C1c2ccccc2C(=O)c2oc(-c3ccc(F)cc3)nc21` as the molecule, how does the residual activity read?
**A.** The residual activity was 55.8%.

Target: T1, Ubiquitin thioesterase OTUB1
Experiment: Binding affinity to OTUB1 in HEK293T cells at 5 uM preincubated for 30 mins followed by UV irradiation and measured after 20 mins by Western blot assay
Format: cell-based
Conditions: time 50.0 min

**Q.** Which Activity does the source give for `C#CCCC1(CCN2CC[C@@H](Oc3cccc(-c4nc5c([nH]4)C(=O)c4ccccc4C5=O)c3)C2)N=N1` here?
**A.** Its Activity is “Active”.

Target: T2, Ubiquitin carboxyl-terminal hydrolase 8 (Homo sapiens) (UniProt P40818)
T2 sequence (whole entry): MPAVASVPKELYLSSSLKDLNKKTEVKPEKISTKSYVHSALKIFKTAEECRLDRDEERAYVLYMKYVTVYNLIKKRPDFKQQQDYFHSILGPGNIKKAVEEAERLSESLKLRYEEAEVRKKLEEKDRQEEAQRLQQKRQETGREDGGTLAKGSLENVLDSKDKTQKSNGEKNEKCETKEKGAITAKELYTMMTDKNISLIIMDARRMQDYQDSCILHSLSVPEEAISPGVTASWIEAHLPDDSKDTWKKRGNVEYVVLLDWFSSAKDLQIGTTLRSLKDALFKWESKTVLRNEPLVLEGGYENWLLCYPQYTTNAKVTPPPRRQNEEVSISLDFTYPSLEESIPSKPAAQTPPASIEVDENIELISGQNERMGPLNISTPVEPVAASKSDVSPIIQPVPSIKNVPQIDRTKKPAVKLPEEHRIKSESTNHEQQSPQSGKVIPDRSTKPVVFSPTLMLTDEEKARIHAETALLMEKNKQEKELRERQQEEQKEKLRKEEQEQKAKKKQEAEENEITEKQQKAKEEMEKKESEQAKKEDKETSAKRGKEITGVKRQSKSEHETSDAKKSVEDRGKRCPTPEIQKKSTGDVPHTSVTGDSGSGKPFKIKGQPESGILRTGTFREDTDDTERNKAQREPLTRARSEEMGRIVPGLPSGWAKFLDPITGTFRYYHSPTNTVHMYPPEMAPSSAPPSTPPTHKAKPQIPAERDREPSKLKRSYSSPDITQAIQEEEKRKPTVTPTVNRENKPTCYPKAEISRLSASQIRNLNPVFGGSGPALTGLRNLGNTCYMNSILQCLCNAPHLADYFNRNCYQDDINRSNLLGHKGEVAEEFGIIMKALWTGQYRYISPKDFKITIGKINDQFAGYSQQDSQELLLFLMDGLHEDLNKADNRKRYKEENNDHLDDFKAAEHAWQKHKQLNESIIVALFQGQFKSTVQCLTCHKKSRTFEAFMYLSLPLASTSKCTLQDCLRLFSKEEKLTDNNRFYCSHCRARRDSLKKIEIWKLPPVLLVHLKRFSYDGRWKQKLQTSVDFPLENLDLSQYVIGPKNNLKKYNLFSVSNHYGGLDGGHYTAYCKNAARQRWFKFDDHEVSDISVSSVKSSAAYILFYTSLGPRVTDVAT
Experiment: Inhibition of N-terminal His-6 tagged USP8 (734 to 1110 residues) (unknown origin) expressed in Escherichia coli BL21 (DE3) cells at 100 nM measured after 3 hrs by fluorescence based Plate reader method relative to control
Conditions: values are per cent of control

**Q.** For `COc1ccc(Cl)c(-c2nc3c(o2)C(=O)c2ccccc2C3=O)c1F`, which residual activity is on record?
**A.** The residual activity was 20.4%.

**Q.** Which residual activity does the source give for `CN1CC[C@@H](Oc2ccc(-c3nc4c(o3)C(=O)c3ccccc3C4=O)c(Cl)c2)C1` here?
**A.** The residual activity was 34.7%.

**Q.** Which residual activity does the source give for `CN(C)CCOc1cccc(-c2nc3c(o2)C(=O)c2ccccc2C3=O)c1` here?
**A.** Its residual activity is 31.7%.

**Q.** For `N#Cc1ccc(-c2nc3c(o2)C(=O)c2ccccc2C3=O)cc1`, which residual activity is on record?
**A.** The residual activity was 20.8%.

**Q.** Which residual activity does the source give for `COc1ccc(Cl)c(-c2nc3c(o2)C(=O)c2ccccc2C3=O)c1` here?
**A.** The residual activity was 24%.

**Q.** For `COc1ccc(-c2nc3c(o2)C(=O)c2ccccc2C3=O)c(C(F)(F)F)c1`, which residual activity is on record?
**A.** Its residual activity is 18.6%.

**Q.** For `CN1CCN(CCOc2cccc(-c3nc4c(o3)C(=O)c3ccccc3C4=O)c2)CC1`, which residual activity is on record?
**A.** Its residual activity is 53.6%.

**Q.** With `CN1CCN(CCOc2ccc(F)c(-c3nc4c(o3)C(=O)c3ccccc3C4=O)c2Cl)CC1` as the molecule, how does the residual activity read?
**A.** Its residual activity is 21.4%.

**Q.** Which residual activity does the source give for `COc1ccc2c(c1)C(=O)c1nc(-c3cccc(OCCN(C)C)c3)[nH]c1C2=O` here?
**A.** The residual activity was 99.6%.

**Q.** Which residual activity does the source give for `Cc1cccc(-c2nc3c(o2)C(=O)c2ccccc2C3=O)c1` here?
**A.** The residual activity was 40.9%.

**Q.** For `O=C1c2ccccc2C(=O)c2oc(-c3ccc(F)cc3)nc21`, which residual activity is on record?
**A.** Its residual activity is 23.3%.

System: not listed separately
Experiment: Aqueous solubility of the compound measured after 24 hr by […] LC-MS/MS analysis
Format: physicochemical
Conditions: buffer

**Q.** With `N#Cc1ccc(-c2nc3c(o2)C(=O)c2ccccc2C3=O)cc1` as the molecule, how does the solubility read?
**A.** The solubility was “Insoluble”.

**Q.** For `CN1CCN(CCOc2ccc(F)c(-c3nc4c(o3)C(=O)c3ccccc3C4=O)c2Cl)CC1`, which solubility is on record?
**A.** Its solubility is “Soluble”.

Target: T2, Ubiquitin carboxyl-terminal hydrolase 8 (Homo sapiens)
Experiment: Inhibition of N-terminal His-6 tagged USP8 (734 to 1110 residues) (unknown origin) expressed in Escherichia coli BL21 (DE3) cells at 10 nM measured after 3 hrs by fluorescence based Plate reader method relative to control
Conditions: values are per cent of control

**Q.** For `COc1ccc(Cl)c(-c2nc3c(o2)C(=O)c2ccccc2C3=O)c1F`, which residual activity is on record?
**A.** Its residual activity is 74.1%.

**Q.** For `CN1CC[C@@H](Oc2ccc(-c3nc4c(o3)C(=O)c3ccccc3C4=O)c(Cl)c2)C1`, which residual activity is on record?
**A.** Its residual activity is 58.9%.

**Q.** Which residual activity does the source give for `CN(C)CCOc1cccc(-c2nc3c(o2)C(=O)c2ccccc2C3=O)c1` here?
**A.** The residual activity was 60.4%.

**Q.** For `N#Cc1ccc(-c2nc3c(o2)C(=O)c2ccccc2C3=O)cc1`, which residual activity is on record?
**A.** Its residual activity is 38.9%.

**Q.** Which residual activity does the source give for `COc1ccc(Cl)c(-c2nc3c(o2)C(=O)c2ccccc2C3=O)c1` here?
**A.** The residual activity was 47.1%.

**Q.** For `COc1ccc(-c2nc3c(o2)C(=O)c2ccccc2C3=O)c(C(F)(F)F)c1`, which residual activity is on record?
**A.** Its residual activity is 80.5%.

**Q.** With `CN1CCN(CCOc2cccc(-c3nc4c(o3)C(=O)c3ccccc3C4=O)c2)CC1` as the molecule, how does the residual activity read?
**A.** The residual activity was 76.4%.

**Q.** For `CN1CCN(CCOc2ccc(F)c(-c3nc4c(o3)C(=O)c3ccccc3C4=O)c2Cl)CC1`, which residual activity is on record?
**A.** Its residual activity is 26.7%.

**Q.** Which residual activity does the source give for `COc1ccc2c(c1)C(=O)c1nc(-c3cccc(OCCN(C)C)c3)[nH]c1C2=O` here?
**A.** The residual activity was 95.3%.

**Q.** For `Cc1cccc(-c2nc3c(o2)C(=O)c2ccccc2C3=O)c1`, which residual activity is on record?
**A.** Its residual activity is 63.6%.

**Q.** For `O=C1c2ccccc2C(=O)c2oc(-c3ccc(F)cc3)nc21`, which residual activity is on record?
**A.** Its residual activity is 53.5%.

Target: T1, Ubiquitin thioesterase OTUB1
Experiment: Inhibition of N-terminal His-6 tagged OTUB1 (40 to 271 residues) (unknown origin) expressed in Escherichia coli BL21 (DE3) cells at 100 nM using Ub-Rho measured after 0.5 to 3 hrs by fluorescence based Plate reader method relative to control
Conditions: time 0.5-3 hrs, values are per cent of control

**Q.** With `COc1ccc(Cl)c(-c2nc3c(o2)C(=O)c2ccccc2C3=O)c1F` as the molecule, how does the residual activity read?
**A.** The residual activity was 26.3%.

**Q.** With `CN1CC[C@@H](Oc2ccc(-c3nc4c(o3)C(=O)c3ccccc3C4=O)c(Cl)c2)C1` as the molecule, how does the residual activity read?
**A.** Its residual activity is 35.1%.

**Q.** For `CN(C)CCOc1cccc(-c2nc3c(o2)C(=O)c2ccccc2C3=O)c1`, which residual activity is on record?
**A.** Its residual activity is 28.7%.

**Q.** Which residual activity does the source give for `N#Cc1ccc(-c2nc3c(o2)C(=O)c2ccccc2C3=O)cc1` here?
**A.** The residual activity was 15.2%.

**Q.** Which residual activity does the source give for `COc1ccc(Cl)c(-c2nc3c(o2)C(=O)c2ccccc2C3=O)c1` here?
**A.** Its residual activity is 25.8%.

**Q.** With `COc1ccc(-c2nc3c(o2)C(=O)c2ccccc2C3=O)c(C(F)(F)F)c1` as the molecule, how does the residual activity read?
**A.** The residual activity was 41.7%.

**Q.** With `CN1CCN(CCOc2cccc(-c3nc4c(o3)C(=O)c3ccccc3C4=O)c2)CC1` as the molecule, how does the residual activity read?
**A.** The residual activity was 36.9%.

**Q.** Which residual activity does the source give for `CN1CCN(CCOc2ccc(F)c(-c3nc4c(o3)C(=O)c3ccccc3C4=O)c2Cl)CC1` here?
**A.** The residual activity was 8.7%.

**Q.** For `COc1ccc2c(c1)C(=O)c1nc(-c3cccc(OCCN(C)C)c3)[nH]c1C2=O`, which residual activity is on record?
**A.** Its residual activity is 77.2%.

**Q.** With `Cc1cccc(-c2nc3c(o2)C(=O)c2ccccc2C3=O)c1` as the molecule, how does the residual activity read?
**A.** The residual activity was 49.2%.

**Q.** For `O=C1c2ccccc2C(=O)c2oc(-c3ccc(F)cc3)nc21`, which residual activity is on record?
**A.** Its residual activity is 24.6%.

Target: T1, Ubiquitin thioesterase OTUB1
Experiment: Inhibition of N-terminal His-6 tagged OTUB1 (40 to 271 residues) (unknown origin) expressed in Escherichia coli BL21 (DE3) cells using Ub-Rho measured after 0.5 to 3 hrs by fluorescence based Plate reader method
Conditions: not given

**Q.** Which IC50 does the source give for `C#CCCC1(CCN2CC[C@@H](Oc3cccc(-c4nc5c([nH]4)C(=O)c4ccccc4C5=O)c3)C2)N=N1` here?
**A.** The IC50 was 6.12 µM.

Target: T1, Ubiquitin thioesterase OTUB1
Experiment: Inhibition of N-terminal His-6 tagged OTUB1 (40 to 271 residues) (unknown origin) expressed in Escherichia coli BL21 (DE3) cells at […] using Ub-Rho measured after 0.5 to 3 hrs by fluorescence based Plate reader method relative to control
Conditions: dose 2.5 µM, time 0.5-3 hrs

**Q.** With `O=C1c2ccccc2C(=O)c2oc(-c3ccccc3)nc21` as the molecule, how does the inhibition read?
**A.** The inhibition was 100%.
